In US11186564B2, “Dual NAV1.2/5HT2a inhibitors for treating CNS disorders” (Sunovion Pharmaceuticals Inc., priority 2016, dated 2021):
pIC50: −log10 of the molar value.

Key:
[1] = target: human sodium channel NaV1.2 (Homo sapiens, UniProt Q99250); experiment: NaV1.2 inhibition, automated patch-clamp (Q-Patch HTX), slow inactivated state (state C); assay type: cell-based; conditions: hNaV1.2 CHO cells, slow inactivated state; for inhibition at 10 µM: 10 μM compound, read-out: NaV1.2 (% inh), 10 μM; for inhibition at 1 µM: 1 μM compound, read-out: NaV1.2 (% inh), 1 μM; for pIC50: read-out: NaV1.2 IC50
Outline: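 IC50 comes from a least-squares fit of percent inhibition, relative to vehicle, of current in the slow-inactivated state. That state is reached by a 10 s prepulse to −50 mV, then 15 ms at −90 mV, then a 5 ms test pulse to 0 mV. Human NaV1.2 in stable CHO K-1 cells, held at −100 mV, automated patch clamp.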

[2] = target: T1, recombinant human serotonin receptor 5-HT2A (Homo sapiens, UniProt P28223); experiment: 5-HT2A antagonist Ca2+ assay in CHO-K1 cells (method A aequorin luminescence / method B FLIPR fluorescence); assay type: cell-based; conditions: antagonist mode vs EC80 of reference agonist, method A or B, read-out: 5HT2A IC50
T1 construct: expressed in transfected cells; method B: loaded with Ca2+ dye
Outline: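 IC50 was obtained by nonlinear regression of percent inhibition of the EC80 agonist Ca2+ response in CHO-K1 cells stably expressing human 5-HT2A. The readout was aequorin luminescence with agonist injected 15 min after compound (A), or Ca2+-dye fluorescence on FLIPR with serotonin as agonist (B).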

T1 sequence (P28223 whole entry): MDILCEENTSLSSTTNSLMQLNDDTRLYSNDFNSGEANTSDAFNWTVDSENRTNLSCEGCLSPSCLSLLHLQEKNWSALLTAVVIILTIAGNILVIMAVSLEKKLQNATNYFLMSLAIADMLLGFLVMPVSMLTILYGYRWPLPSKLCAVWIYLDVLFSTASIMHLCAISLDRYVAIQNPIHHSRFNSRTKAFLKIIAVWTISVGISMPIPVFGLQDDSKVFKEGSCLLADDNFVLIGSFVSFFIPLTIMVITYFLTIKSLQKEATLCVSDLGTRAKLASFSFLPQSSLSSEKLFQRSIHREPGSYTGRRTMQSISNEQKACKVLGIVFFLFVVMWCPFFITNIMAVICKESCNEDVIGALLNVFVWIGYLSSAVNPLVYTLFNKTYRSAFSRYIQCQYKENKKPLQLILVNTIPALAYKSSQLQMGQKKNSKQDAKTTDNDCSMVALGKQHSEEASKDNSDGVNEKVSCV
Sequence of human sodium channel NaV1.2 (Q99250 whole entry): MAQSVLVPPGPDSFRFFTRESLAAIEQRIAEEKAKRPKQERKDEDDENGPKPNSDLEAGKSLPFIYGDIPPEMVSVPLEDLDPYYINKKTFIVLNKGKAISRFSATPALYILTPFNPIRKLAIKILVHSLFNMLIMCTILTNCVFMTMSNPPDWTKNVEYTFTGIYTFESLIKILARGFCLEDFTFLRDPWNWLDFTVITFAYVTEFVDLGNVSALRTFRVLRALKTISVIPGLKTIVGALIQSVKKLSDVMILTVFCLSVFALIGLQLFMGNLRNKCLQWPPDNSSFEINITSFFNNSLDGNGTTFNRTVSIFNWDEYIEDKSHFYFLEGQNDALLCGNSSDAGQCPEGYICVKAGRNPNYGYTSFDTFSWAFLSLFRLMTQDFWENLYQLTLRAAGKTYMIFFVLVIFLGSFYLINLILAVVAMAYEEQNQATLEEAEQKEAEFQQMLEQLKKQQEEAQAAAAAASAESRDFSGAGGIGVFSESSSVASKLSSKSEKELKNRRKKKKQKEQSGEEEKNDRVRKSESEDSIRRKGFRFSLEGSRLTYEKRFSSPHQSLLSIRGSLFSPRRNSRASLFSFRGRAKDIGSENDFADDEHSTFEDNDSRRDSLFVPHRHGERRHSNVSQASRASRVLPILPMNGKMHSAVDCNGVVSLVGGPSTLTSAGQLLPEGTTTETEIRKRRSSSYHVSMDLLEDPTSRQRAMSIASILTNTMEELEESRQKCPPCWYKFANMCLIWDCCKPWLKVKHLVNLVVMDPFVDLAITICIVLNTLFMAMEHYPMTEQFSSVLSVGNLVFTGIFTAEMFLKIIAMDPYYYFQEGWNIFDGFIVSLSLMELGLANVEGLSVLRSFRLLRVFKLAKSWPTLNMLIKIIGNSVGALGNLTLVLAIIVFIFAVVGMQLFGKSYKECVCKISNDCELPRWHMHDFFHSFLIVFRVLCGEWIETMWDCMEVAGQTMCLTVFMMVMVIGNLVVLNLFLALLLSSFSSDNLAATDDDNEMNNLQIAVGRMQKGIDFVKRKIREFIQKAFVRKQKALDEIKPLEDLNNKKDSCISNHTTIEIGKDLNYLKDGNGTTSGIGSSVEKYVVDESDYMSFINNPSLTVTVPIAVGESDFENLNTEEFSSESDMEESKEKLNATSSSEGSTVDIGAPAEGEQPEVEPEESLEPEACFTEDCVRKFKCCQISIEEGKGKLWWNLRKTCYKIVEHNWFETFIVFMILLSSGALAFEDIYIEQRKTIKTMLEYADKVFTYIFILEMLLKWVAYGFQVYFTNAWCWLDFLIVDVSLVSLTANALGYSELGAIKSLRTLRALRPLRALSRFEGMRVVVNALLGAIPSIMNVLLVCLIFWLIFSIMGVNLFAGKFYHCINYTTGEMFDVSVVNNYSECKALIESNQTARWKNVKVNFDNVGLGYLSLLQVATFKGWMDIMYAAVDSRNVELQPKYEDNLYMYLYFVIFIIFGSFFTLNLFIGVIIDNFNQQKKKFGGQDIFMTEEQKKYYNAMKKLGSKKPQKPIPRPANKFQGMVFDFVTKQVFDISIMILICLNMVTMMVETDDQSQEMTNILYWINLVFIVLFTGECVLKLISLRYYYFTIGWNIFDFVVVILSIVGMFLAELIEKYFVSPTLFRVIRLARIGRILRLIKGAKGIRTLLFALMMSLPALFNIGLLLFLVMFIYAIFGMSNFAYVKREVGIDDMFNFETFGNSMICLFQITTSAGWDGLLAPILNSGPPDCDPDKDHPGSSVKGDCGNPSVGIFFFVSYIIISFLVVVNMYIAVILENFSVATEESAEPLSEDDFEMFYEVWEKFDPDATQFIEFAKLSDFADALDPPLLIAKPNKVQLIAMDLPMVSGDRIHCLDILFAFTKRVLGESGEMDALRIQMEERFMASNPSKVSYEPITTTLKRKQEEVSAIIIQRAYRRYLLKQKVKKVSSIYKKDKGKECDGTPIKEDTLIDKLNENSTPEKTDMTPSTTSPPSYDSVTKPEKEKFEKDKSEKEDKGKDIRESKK

Structure (SMILES)	inhibition at 10 µM [1] [%]	pIC50 [2]	inhibition at 1 µM [1] [%]	pIC50 [1]
c1ccc2c(c1)CCC1(CN(CC3CCc4ccccc43)C1)O2 (centres unmarked) [Example 385, 1-((2,3-dihydro-1H-inden-1-yl)methyl)spiro[azetidine-3,2′-chromane]]		6.27	16	
c1ccc2c(c1)CCC2CN1CCC2(CCc3cccnc3O2)CC1 (centres unmarked) [Example 406, 1-((2,3-dihydro-1H-inden-1-yl)methyl)-3′,4′-dihydrospiro[piperidine-4,2′-pyrano[2,3-b]pyridine]]		7.40	7	
COc1ccc2c(c1)C(CN1CC[C@@H]3C[C@H]1CN3c1ccccc1)CC2 (stereo partly drawn) [Example 319, (1S,5R)-2-((6-methoxy-2,3-dihydro-1H-inden-1-yl)methyl)-6-phenyl-2,6-diazabicyclo[3.2.1]octane]		5.92		7.40
Fc1ccc(OC2CCCN(CC3COc4ccccc43)CC2)cc1 (centres unmarked) [Example 272, 1-((2,3-dihydrobenzofuran-3-yl)methyl)-4-(4-fluorophenoxy)azepane]		8.00		6.08
COc1ccc2c(c1)C(CN1CC[C@@H](Oc3ccccc3OC)C[C@@H]1C)CC2 (stereo partly drawn) [Example 102, (2S,4R)-1-((6-methoxy-2,3-dihydro-1H-inden-1-yl)methyl)-4-(2-methoxyphenoxy)-2-methylpiperidine]		6.82	82	
Fc1ccc(OC2CCN(CCC3CCc4ccccc43)CC2)cc1 (centres unmarked) [Example 171, 1-(2-(2,3-dihydro-1H-inden-1-yl)ethyl)-4-(4-fluorophenoxy)piperidine]		7.22		7.40
OC1(CN2CC[C@@H](Oc3ccc(F)cc3)C2)COCc2ccccc21 (stereo partly drawn) [Example 9, 4-(((R)-3-(4-fluorophenoxy)pyrrolidin-1-yl)methyl)isochroman-4-ol]		6.22	1	

Now from value to compound, other results behind:

inhibition at 10 µM [1] [%]	pIC50 [2]	inhibition at 1 µM [1] [%]	Structure (SMILES)	pIC50 [1]
72	7.30		Fc1ccc(OC2CCN(CC3CCc4cccnc43)CC2)cc1 (centres unmarked) [Example 128, 7-((4-(4-fluorophenoxy)piperidin-1-yl)methyl)-6,7-dihydro-5H-cyclopenta[b]pyridine]	
99	5.90		O=C(NCCN1CCCCC1)c1cccc(-c2ccc(Oc3ccc(F)cc3)cc2)n1 [Example 447, 6-(4-(4-fluorophenoxy)phenyl)-N-(2-(piperidin-1-yl)ethyl)picolinamide]	
46	< 5.89		COCc1cccc(OC2CCN(CCN3CCCc4ccccc4C3=O)CC2)c1 [Example 206, 2-(2-(4-(3-(methoxymethyl)phenoxy)piperidin-1-yl)ethyl)-2,3,4,5-tetrahydro-1H-benzo[c]azepin-1-one]	
